Measured values taken from patent US20230329284A1, “BEE ANTIVIRAL COMPOSITIONS” (priority 2022, published 2023).

Columns and labels:
deformed wing virus = assay: Screen of plant compounds for effect on bee viral loads in live bees; format: in vivo, honey bee; details: for deformed wing virus levels (viral loads), dose response: FIG. 6; for antiviral activity in live bee trials: live bees exposed to natural products derived from plants
Description: A total of 140 compounds were screened for their effect on bee viral loads.
All compounds are selected from food-safe (GRAS, generally recognized as safe by the US FDA) libraries and were tested in live bees to assess adverse impacts to bee health. Trials were carried out using live bees exposed to natural products derived from plants. […] Thymol and octanoic acid blends are being tested to assess possible synergies prior to field trials.

VDV = assay: Methyl jasmonate feeding of naturally VDV-infected adult honey bees, VDV load per bee by qPCR (ΔCq); format: in vivo; details: for decrease in VDV titers compared to control bees (sugar alone) / mean change in quantification cycle value of VDV per bee (ΔCq) / decrease in VDV titers compared to control bees / mean ΔCq of VDV per bee: FIG. 1; for decrease in VDV titers compared to control bees (sugar alone) / mean change in quantification cycle value of VDV per bee (ΔCq): day 7; for mean change in quantification cycle value of VDV per bee (ΔCq): control 3.9 (+/-3.5); for decrease in VDV titers compared to control bees / mean ΔCq of VDV per bee: day 12; for mean ΔCq of VDV per bee: control 7.8 ( +/- 2.8)
Description: The effect on viral load of methyl jasmonate (MeJA) treatment on virally-infected bees was tested after 7 days and after 12 days of feeding sugar or sugar + MeJA.
Adult honey bees were reared in cages and fed either sucrose solution, 100 ppm MeJA dissolved in sucrose solution, or 500 ppm of MeJA dissolved in sucrose solution. Bees’ genetic material was individually examined by qPCR for normalized VDV loads at 7 days and 12 days after the start of MeJA treatment. Standard box plots include a dotted line that represents the mean, and each point represents an individual bee from one of various cages per treatment. VDV was not administered artificially and is from a natural infection. Levels of DWV-A, a recombinant variant of VDV, were too low in the specimen for quantification. A higher Δ Cq indicates […] VDV present in the specimen. For Day 7,
A second efficiency test was performed where VDV-infected adult bees were fed 100 ppm of MeJA dissolved in sucrose solution. As a control, only sucrose solution was administered.

[1] = tested on: Deformed wing virus (DWV); assay: Fluorescent determination of bee viral titers with nano-luciferase-expressing DWV construct; format: in vivo, bees; details: for Average Fluorescence, Average Counts: single treatment with 10^5 copies DWV, average of nine bees, DWV alone 111.366, PBS 1.687; for viral load of DWV-infected bees compared with DWV control: low, medium, or high doses
Description: A fluorescent assay was performed to determine the effects of different treatments on bee viral load.
Bees were treated once with different doses of methyl jasmonate while simultaneously receiving an effective does (10^5 copies) of Deformed wing virus (DWV). The methyl jasmonte was at low dose (MJL), medium dose (MJM), or high dose (MJH). Additional bees were treated with thymol solution in low dose (TL), medium dose (TM), and high dose (TH). The infective virus dose comprised a viral construct that expressed nano-luciferase, allowing direct quantification of viral loads via spectrophotometer. As a negative control, phosphate buffered saline (PBS) solution was used alone. As a positive control, bees were infected with 10^5 DWV alone. Measurements were repeated nine times in nine different bees, and an average calculated.

For `CC/C=C\CC1C(=O)CCC1CC(=O)OC` (stereo not shown) [MeJA, Methyl jasmonate], the “deformed wing virus levels (viral loads), dose response” value (“deformed wing virus levels” for short) (deformed wing virus; higher levels, 1 mM or 10 mM) was “dose response in viral loads”, the “antiviral activity in live bee trials” value (deformed wing virus) was “antiviral activity” and the “decrease in VDV titers compared to control bees (sugar alone)” value (VDV; sugar + 100 ppm MeJA) was 11.5%. The “mean change in quantification cycle value of VDV per bee (ΔCq)” value (VDV; sugar + 100 ppm MeJA, higher ΔCq = more VDV) was 3.45 (+/- 4.8), the “decrease in VDV titers compared to control bees (sugar alone)” value (VDV; sugar + 500 ppm MeJA) was 97.8% and the “mean change in quantification cycle value of VDV per bee (ΔCq)” value (VDV; sugar + 500 ppm MeJA) was 0.085 (+/- 6.16). The “decrease in VDV titers compared to control bees” value (VDV; sugar + 100 ppm MeJA) was 33.3%, the “mean ΔCq of VDV per bee” value (VDV; sugar + 100 ppm MeJA) was 5.2 ( +/- 4.9) and the “decrease in VDV titers compared to control bees” value (VDV; sugar + 500 ppm MeJA) was 52.6%. The “mean ΔCq of VDV per bee” value (VDV; sugar + 500 ppm MeJA) was 3.7 ( +/- 5.3), the “decrease in VDV titers compared to bees fed sugar alone (using the mean)” value (VDV; FIG. 3, Day 7, sugar + 500 ppm MeJA) was 7.1% and the “median Cq” value (VDV; FIG. 3, Day 7, sugar + 500 ppm MeJA, control 7.1) was 6.1. The “mean Cq” value (VDV; FIG. 3, Day 7, sugar + 500 ppm MeJA, spread 2.1, control 7.0) was 6.5, the “decrease in VDV titers compared to bees fed sugar alone (using the mean)” value (VDV; second efficiency test, FIG. 2, Day 7, sugar + 100 ppm MeJA) was 21.9% and the “median ΔCq” value (VDV; second efficiency test, FIG. 2, Day 7, sugar + 100 ppm MeJA, control 4.17) was 1.33. For the same compound, the “mean ΔCq” value (VDV; second efficiency test, FIG. 2, Day 7, sugar + 100 ppm MeJA, std dev. 3.8, control 3.2) was 2.5, the “viral levels compared with bees fed sugar alone” value (VDV; treated for 12 days with sugar + MeJA) was “significantly lower viral levels” and the “Average Fluorescence, Average Counts” value ([1]; high dose) was 68.246. For the same compound, the “Average Fluorescence, Average Counts” value ([1]; low dose) was 76.120, the “viral load of DWV-infected bees compared with DWV control” value [1] was “lower viral load” and the “Average Fluorescence, Average Counts” value ([1]; medium dose) was 83.905.
With `COc1cc(/C=C/C(=O)O)ccc1O` [ferulic acid, Ferulic acid] the “deformed wing virus levels” value (deformed wing virus; low levels, 0.1 mM) was “dose response in viral loads” and the “antiviral activity in live bee trials” value (deformed wing virus) was “antiviral activity”.
With `CCCCCCCC(=O)O` [octanoic acid] the “deformed wing virus levels” value (deformed wing virus; higher levels, 10 mM and 100 mM) was “dose response in viral loads” and the “antiviral activity in live bee trials” value (deformed wing virus) was “antiviral activity”.
In the case of `Cc1ccc(C(C)C)c(O)c1` [thymol, 2-isopropyl-5-methylphenol], the “high-intensity infections (viral levels above threshold)” value (deformed wing virus; FIG. 5, across 3000 honey bee trials) is reported as “quantitative reduction of high-intensity infections”, the “antiviral activity in live bee trials” value (deformed wing virus) is reported as “antiviral activity” and the “Average Fluorescence, Average Counts” value ([1]; high dose) is reported as 63.290. The “Average Fluorescence, Average Counts” value ([1]; low dose) was 67.092, the “viral load of DWV-infected bees compared with DWV control” value [1] was “lower viral load” and the “Average Fluorescence, Average Counts” value ([1]; medium dose) was 72.992.
